Test results as given in patent US20220396565A1 (Hoffmann-La Roche Inc., priority 2020, published 2022).
Where a name gives a salt, the structure may show the parent alone. Read-outs that look alike come from different tables or passages of the source.

Test system: Acinetobacter baumannii ATCC17961
Experiment: Antimicrobial susceptibility testing: 90% growth inhibitory concentration (IC90) determination, Iso-Sensitest broth
Type: cell-based
Settings: Acinetobacter baumannii
Outline: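 Twofold serial dilutions (e.g. 10 to 0.02 μM final) were tested in Iso-Sensitest broth against ~5×10^(5) CFU/ml at 35±2 °C. OD600 was read every 20 min over 16 h. IC90 was derived from growth inhibition during the logarithmic phase.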

[1] = ATCC17961, 90% growth inhibitory concentration, Acinetobacter baumannii ATCC17961, Iso-Sensitest broth, read-out: ATCC 17961 IC90

Row | SMILES | IC90 [1] | IC90 (ATCC17961, read-out: ATCC 17961 IC90)
1 | CN(C)CC(=O)N1CCN(C(=O)c2ccc(NC(=O)c3ncc(-c4ccc(OC(F)F)cc4F)n3C)cc2Cl)CC1 [Example 175, N-[3-chloro-4-[4-[2-(dimethylamino)acetyl]piperazine-1-carbonyl]phenyl]-5-[4-(difluoromethoxy)-2-fluoro-phenyl]-1-methyl-imidazole-2-carboxamide formate] | 50 nM | 
2 | COc1ccc(-c2cnc(C(=O)Nc3ccc(C(=O)N4CCC(C(=O)N[C@@H]5CCNC5)CC4)c(Cl)c3)n2C)c(F)c1F [Example 64, 1-[2-chloro-4-[[5-(2,3-difluoro-4-methoxy-phenyl)-1-methyl-imidazole-2-carbonyl]amino]benzoyl]-N-[(3R)-pyrrolidin-3-yl]piperidine-4-carboxamide formate] | 60 nM | 
3 | Cn1c(-c2ccc(OC(F)F)c(F)c2F)cnc1C(=O)Nc1ccc(C(=O)N2CCC(C(=O)N[C@H]3CCNC3)CC2)c(Cl)c1 [Example 95, (S)-1-(2-chloro-4-(5-(4-(difluoromethoxy)-2,3-difluorophenyl)-1-methyl-1H-imidazole-2-carboxamido)benzoyl)-N-(pyrrolidin-3-yl)piperidine-4-carboxamide formate] | 50 nM | 
4 | Cn1c(-c2ccc(OC(F)F)c(F)c2F)cnc1C(=O)Nc1ccc(C(=O)N2CCC(C(=O)N3CCC(C(N)=O)C3)CC2)c(Cl)c1 (stereo not drawn) [Example 49, N-[4-[4-(3-carbamoylpyrrolidine-1-carbonyl)piperidine-1-carbonyl]-3-chloro-phenyl]-5-[4-(difluoromethoxy)-2,3-difluoro-phenyl]-1-methyl-imidazole-2-carboxamide trifluoroacetate] | 150 nM | 
5 | COc1ccc(-c2cnc(C(=O)Nc3ccc(C(=O)N4CCN(C(=O)[C@H]5[C@@H]6CNC[C@@H]65)CC4)c(Cl)c3)n2C)c(F)c1F [Example 184, N-[4-[4-[(1R,5S)-3-azabicyclo[3.1.0]hexane-6-carbonyl]piperazine-1-carbonyl]-3-chloro-phenyl]-5-(2,3-difluoro-4-methoxy-phenyl)-1-methyl-imidazole-2-carboxamide trifluoroacetate] | 20 nM | 
6 | Cn1c(-c2ccc(OC(F)F)c(F)c2F)cnc1C(=O)Nc1ccc(C(=O)N2CCC(C(=O)N3CC[C@H](N)C3)CC2)c(Cl)c1 [Example 46, N-[4-[4-[(3S)-3-aminopyrrolidine-1-carbonyl]piperidine-1-carbonyl]-3-chloro-phenyl]-5-[4-(difluoromethoxy)-2,3-difluoro-phenyl]-1-methyl-imidazole-2-carboxamide trifluoroacetate] | 70 nM | 
7 | COc1ccc(-c2cnc(C(=O)Nc3ccc(C(=O)N4CCC(NC(=O)[C@@H]5C[C@@H](O)CN5)CC4)c(Cl)c3)n2C)c(F)c1F [Example 102, N-[3-chloro-4-[4-[[(2S,4R)-4-hydroxypyrrolidine-2-carbonyl]amino]piperidine-1-carbonyl]phenyl]-5-(2,3-difluoro-4-methoxy-phenyl)-1-methyl-imidazole-2-carboxamide] | 90 nM | 
8 | Cn1c(-c2ccc(OCF)c(F)c2F)cnc1C(=O)Nc1ccc(C(=O)N2CCN(C(=O)[C@@H]3CCNC3)CC2)c(Cl)c1 [Example 155, N-[3-chloro-4-[4-[(3R)-pyrrolidine-3-carbonyl]piperazine-1-carbonyl]phenyl]-5-[2,3-difluoro-4-(fluoromethoxy)phenyl]-1-methyl-imidazole-2-carboxamide formate] | 40 nM | 
9 | COc1ccc(-c2cnc(C(=O)Nc3ccc(C(=O)N4CCN(C(=O)CCN)CC4)c(Cl)c3)n2C)c(F)c1F [Example 123, N-[4-[4-(3-aminopropanoyl)piperazine-1-carbonyl]-3-chloro-phenyl]-5-(2,3-difluoro-4-methoxy-phenyl)-1-methyl-imidazole-2-carboxamide formate] | 40 nM | 
10 | COc1ccc(-c2cnc(C(=O)Nc3ccc(C(=O)N4CCC(NS(=O)(=O)C5CCNC5)CC4)c(Cl)c3)n2C)c(F)c1F (stereo not drawn) [Example 237, N-[3-chloro-4-[4-(pyrrolidin-3-ylsulfonylamino)piper-idine-1-carbonyl]phenyl]-5-(2,3-difluoro-4-methoxy-phenyl)-1-methyl-imidazole-2-carboxamide] | 50 nM | 
11 | COc1ccc(-c2cnc(C(=O)Nc3ccc(C(=O)N4CCN(C(=O)CN)CC4)c(Cl)c3)n2C)c(F)c1F [Example 149, N-[4-[4-(2-aminoacetyl)piperazine-1-carbonyl]-3-chloro-phenyl]-5-(2,3-difluoro-4 methoxy-phenyl)-1-methyl-imidazole-2-carboxamide formate] | 30 nM | 
12 | COc1ccc(-c2cnc(C(=O)Nc3ccc(C(=O)N4CCN(C(=O)[C@@H]5CCNC5)CC4)c(Cl)c3)n2C)c(F)c1F [Example 138, N-[3-chloro-4-[4-[(3R)-pyrrolidine-3-carbonyl]piperazine-1-carbonyl]phenyl]-5-(2,3-difluoro-4-methoxy-phenyl)-1-methyl-imidazole-2-carboxamide formate] | 30 nM | 
13 | COc1ccc(-c2cnc(C(=O)Nc3ccc(C(=O)N4CCC(C(=O)N[C@H]5CNC[C@@H]5O)CC4)c(Cl)c3)n2C)c(F)c1F [Example 72, 1-[2-chloro-4-[[5-(2,3-difluoro-4-methoxy-phenyl)-1-methyl-imidazole-2-carbonyl]amino]benzoyl]-N-[(3S,4S)-4-hydroxypyrrolidin-3-yl]piperidine-4-carboxamide formate] | 50 nM | 
14 | COc1ccc(-c2cnc(C(=O)Nc3ccc(C(=O)N4CCN(S(=O)(=O)CCN)CC4)c(Cl)c3)n2C)c(F)c1F [Example 239, N-[4-[4-(2-aminoethylsulfonyl)piper-razine-1-carbonyl]-3-chloro-phenyl]-5-(2,3-difluoro-4-methoxy-phenyl)-1-methyl-imidazole-2-carboxamide] | 150 nM | 
15 | COc1ccc(-c2cnc(C(=O)Nc3ccc(C(=O)N4CCN(C(=O)C5CC6(CNC6)C5)CC4)c(C)c3)n2C)c(Cl)c1F [Example 119, N-[4-[4-(2-azaspiro[3.3]heptane-6-carbonyl)piperazine-1-carbonyl]-3-methyl-phenyl]-5-(2-chloro-3-fluoro-4-methoxy-phenyl)-1-methyl-imidazole-2-carboxamide; formic acid] | 120 nM | 
16 | Cn1c(-c2ccc(OCC#N)c(F)c2F)cnc1C(=O)Nc1ccc(C(=O)N2CCN(CCNC(=O)[C@H]3CCCN3)CC2)c(Cl)c1 [Example 213, (R)-N-(3-chloro-4-(4-(2-(pyrrolidine-2-carboxamido)ethyl)piperazine-1-carbonyl)phenyl)-5-(4-(cyanomethoxy)-2,3-difluorophenyl)-1-methyl-1H-imidazole-2-carboxamide 2,2,2-trifluoroacetate] | 100 nM | 
17 | COc1ccc(-c2cnc(C(=O)Nc3ccc(C(=O)N4CCC(C(=O)N[C@H]5[C@@H]6CNC[C@@H]65)CC4)c(Cl)c3)n2C)c(F)c1F [Example 59, N-[(1S,5R)-3-azabicyclo[3.1.0]hexan-6-yl]-1-[2-chloro-4-[[5-(2,3-difluoro-4-methoxy-phenyl)-1-methyl-imidazole-2-carbonyl]amino]benzoyl] piperidine-4-carboxamide formate] | 50 nM | 
18 | COc1ccc(-c2cnc(C(=O)Nc3ccc(C(=O)N4CCC(NC(=O)CCN)CC4)c(Cl)c3)n2C)c(F)c1F [Example 103, N-[4-[4-(3-aminopropanoylamino)piperidine-1-carbonyl]-3-chloro-phenyl]-5-(2,3-difluoro-4-methoxy-phenyl)-1-methyl-imidazole-2-carboxamide formate] | 60 nM | 
19 | CCOc1ccc(-c2cnc(C(=O)Nc3ccc(C(=O)N4CCN(C(=O)C5(O)CCNCC5)CC4)c(Cl)c3)n2C)c(F)c1F [Example 170, N-[3-chloro-4-[4-(4-hydroxypiperidine-4-carbonyl)piperazine-1-carbonyl]phenyl]-5-(4-ethoxy-2,3-difluoro-phenyl)-1-methyl-imidazole-2-carboxamide formate] | 60 nM | 
20 | COc1ccc(-c2cnc(C(=O)Nc3ccc(C(=O)N4CCN(C(=O)CCCNC(=N)N)CC4)c(Cl)c3)n2C)c(F)c1F [Example 135, N-[3-chloro-4-[4-(4-guanidinobutanoyl)piperazine-1-carbonyl]phenyl]-5-(2,3-difluoro-4-methoxy-phenyl)-1-methyl-imidazole-2-carboxamide formate] | 30 nM | 
21 | COc1ccc(-c2cnc(C(=O)Nc3ccc(C(=O)N4CCC(NS(C)(=O)=O)CC4)c(Cl)c3)n2C)c(F)c1F [Example 238, N-[3-chloro-4-[4-(methanesulfonamido)piperidine-1-carbonyl]phenyl]-5-(2,3-difluoro-4-methoxy-phenyl)-1-methyl-imidazole-2-carboxamide] | 130 nM | 
22 | Cn1c(-c2ccc(OCF)c(Cl)c2F)cnc1C(=O)Nc1ccc(C(=O)N2CCN(C(=O)[C@@H]3C[C@@H](O)CN3)CC2)c(Cl)c1 [Example 247, 5-[3-chloro-2-fluoro-4-(fluoromethoxy)phenyl]-N-[3-chloro-4-[4-[(2S,4R)-4-hydroxypyrrolidine-2-carbonyl]piperazine-1-carbonyl]phenyl]-1-methyl-imidazole-2-carboxamide] | 30 nM | 
23 | Cn1c(-c2ccc(OCC#N)c(F)c2F)cnc1C(=O)Nc1ccc(C(=O)N2CCC(C(=O)NCC(O)CN)CC2)c(Cl)c1 (stereo not drawn) [Example 84, N-(3-amino-2-hydroxypropyl)-1-(2-chloro-4-(5-(4-(cyanomethoxy)-2,3-difluorophenyl)-1-methyl-1H-imidazole-2-carboxamido)benzoyl) piperidine-4-carboxamide 2,2,2-trifluoroacetate] |  | 90 nM
24 | Cn1c(-c2ccc(OC(F)F)cc2F)cnc1C(=O)Nc1ccc(C(=O)N2CCN(C(=O)CC3CNC3)CC2)c(Cl)c1 [Example 178, N-[4-[4-[2-(azetidin-3-yl)acetyl]piperazine-1-carbonyl]-3-chloro-phenyl]-5-[4-(difluoromethoxy)-2-fluoro-phenyl]-1-methyl-imidazole-2-carboxamide formate] | 70 nM | 
